How the values were obtained:
C57BL/6J mice = test: Extended study in geriatric C57BL/6J mice (biochemistry, function, necropsy, cytokines, SA-β-gal in organs); assay type: in vivo, mouse
Experimental: Sections were prepared from organs and ear biopsies from snap‐frozen tissues and mounted on SuperFrost Plus slides (VWR). SA‐β‐gal staining was performed according to the manufacturer's instructions for the Sigma‐Aldrich‐QIA117 staining kit (Sigma‐Aldrich). Nuclei were counterstained with Nuclear Fast Red (Sigma‐Aldrich), and images were acquired using a Zeiss AxioCam HRc mounted on a Leitz Laborlux S light microscope. The percentage of senescent cells was determined with QuPath v. 0.3.2 (Bankhead et al. [2017]).
All experiments were performed per the European Community Council Directives of 2010/63/UE. The pilot study (PS) investigated safety and potential senolytic efficacy, and the Extended study (ES) investigated functional changes, pathological phenotype, and the principal organ targeted by K5. Protocols were approved according to current Italian law (D.Lgs. n. 26/2014) by OPBA (animal care and health committee) of IRCCS INRCA and by the General Direction of Animal Health and Veterinary Drugs of the Italian Ministry of Health with authorization n°‐137/2021‐PR for PS and authorization n°‐370/2022‐PR for ES. In the PS of p16‐3MR mice (26 months), bioluminescence associated with p16‐expression was monitored before and after treatment, and the health of the mice was longitudinally studied. The ES used geriatric C57BL/6J mice (31 months). Clinical health and physical performance were analyzed before and after K5 treatment. Subsequently, the animals were euthanized, gross necropsies were performed, and organs were collected for further analysis. Detailed protocols are reported in the extended section.
Blood samples were collected from the right retroorbital plexus. Glucose (GLUC), creatinine (CREA), aspartate aminotransferase (AST/GOT), and alanine aminotransferase (ALT/GPT) were determined in EDTA‐plasma by using an automated analyzer (Cobas Mira, Roche) according to the manufacturer's instructions. Cytokines were measured in EDTA‐plasma using the ProcartaPlex Mouse Cytokine & Chemokine Panel 1, 26plex (Thermofisher) and read in the Luminex 200 instrument (Bio‐Rad), following the producer's recommendation.
We measured the clinical frailty index (CFI), Clinical Health Score (CHS), Physical Function Score (PFS), and Vitality Score (VS) in mice, as previously described (Marcozzi et al. [2023]). All frailty measurements were performed in a dedicated INRCA SPF animal facility area. The CFI score for each mouse was calculated as previously published (Whitehead et al. [2014]). The VS was obtained by calculating the arithmetic mean of the individual values of CHS and PFS. Several tests were assessed for endurance and speed Scores; details are reported in the extended methods.
For aged tissues: 10 μm-thick tissue sections were prepared from nine organs (liver, heart, lung, kidney, quadriceps, gastrocnemius, brain cortex, cerebellum, and hippocampus) and ear biopsies with a cryostat from snap-frozen tissues and mounted on SuperFrost Plus slides (VWR, Radnor, PA, USA). SA-β-gal staining was performed according to the manufacturer's instructions of the Sigma-Aldrich-QIA117 staining kit (Sigma-Aldrich, St. Louis, MO, USA). Nuclei were counterstained with Nuclear Fast Red (NFR) (Sigma-Aldrich, St. Louis, MO, USA), and images (from […] sections) were acquired using a Zeiss AxioCam HRc mounted on a Leitz Laborlux S light microscope. The percentage of senescent cells was determined as the mean of 3–4 images from each tissue section by counting the total and SA-β-gal-positive cells with the positive cell detection tool available in the open-source software for digital image analysis, QuPath v. 0.3.2 (Bankhead et al. 2017).
In the extended study, more geriatric C57BL/6J mice were used to confirm safety and investigate the main organs targeted by K5 (Fig. S5). For this purpose, 26 geriatric mice (14 males, 12 females, aged 31 months) and 24 geriatric mice (13 males, 11 females, and 31 months) were treated with K5 and the Vehicle. […]

MCF7 cells = test: Annexin V staining of senescent MCF7 (Incucyte); assay type: cell-based, Homo sapiens; settings: Tamoxifen-induced senescent MCF7, K5 10 μM, after 24 h, over 96 h
Experimental: Senescent MCF7 cells were treated with K5 and Incucyte Annexin V NIR Dye (Sartorius). Cells were monitored using the Incucyte live‐cell Analysis system (Sartorius). Images were acquired using the phase microscopy EVOS XL Core at 10× magnification and analyzed using the ImageJ software.
Annexin V staining. MCF7 were plated 24 h before the treatment with 4-Hydroxytamoxifen (TAM) 10 μM for 96 h to induce the senescence described by (Lee et al. 2014). Control cultures were treated with equal volumes of 75% ethanol as the vehicle. Then, cells were washed and treated with the senolytic drug K5 10 µM and DMSO as solvent control for another 96 h and with the Incucyte Annexin V NIR Dye (1:200, Sartorius). Cells were monitored using the Incucyte live-cell Analysis system (Sartorius). The images were acquired using the phase microscopy EVOS XL Core at 10X magnification and analyzed using the ImageJ software. The mean signal intensity was then normalized for the total number of cells.

IMR90 cells = test: SA-β-galactosidase colorimetric assay on senescent IMR90; assay type: cell-based, Homo sapiens
Experimental: Previously treated cells were fixed according to the protocols established by the supplier (Cell Signaling). The images were acquired using an optical microscope (Leica) with 5× and 10× magnification (MAG) or the phase microscopy EVOS XL Core at 10× MAG and analyzed using the ImageJ software. The mean signal intensity was then normalized for the total number of cells.
β-galactosidase colorimetric assay. For cell cultures: Previously treated cells were fixed with the fixative solution for 10 min at RT according to the protocols established by the supplier (Senescence β-Galactosidase Staining Kit, #9860S, Cell Signaling, Danvers, MA, USA) Cells were then incubated with the substrate, X-gal, in a solution at pH 6, at 37°C, overnight (16 h) (Itahana et al. 2007). The images were acquired using an optical microscope (Leica, Wetzlar, Germany) with 5 and 10X magnification or the phase microscopy EVOS XL Core at 10X magnification. The images were analyzed using the ImageJ software, quantifying the colorimetric signal emitted by each cell. The mean signal intensity was then normalized for the total number of cells.

[1] = geriatric C57BL/6J mice, vs control

Cc1ccccc1-n1c(=O)n(Cc2ccccc2)c(=O)c2[nH]cnc21 [Compound K5, 1-benzyl-3-(2-methylphenyl)-7H-purine-2,6-dione]
body weight (C57BL/6J mice; geriatric C57BL/6J mice, throughout the treatment period): remained stable | plasma levels of glucose, creatinine, GOT, and GPT, treated vs control (C57BL/6J mice; geriatric C57BL/6J mice, two rounds of three injections): no significant differences | SA-β-gal staining in the liver (C57BL/6J mice; [1]): significantly reduced staining | SA-β-gal staining in the pancreas (C57BL/6J mice; [1]): significantly reduced staining | circulating IL-1β (C57BL/6J mice; geriatric C57BL/6J mice, vs controls): significant reduction | Physical Function Score vs control (C57BL/6J mice; treated male mice): significant increase | Vitality Score vs control (C57BL/6J mice; treated male mice): significant increase | tumor incidence at gross necropsy (C57BL/6J mice; treated male mice): lower incidence of tumors | Annexin V signal (MCF7 cells): significant and stable increase | reduced SA-β-gal+ cells (IMR90 cells): 20%

From publication PMC12266748, “A Xanthine Derivative With Novel Heat Shock Protein 90‐Alpha Inhibitory and Senolytic Properties” (Aging Cell, 2025)
